Patent US6936585B2, “Corticotropin releasing factor 2 receptor agonists” (priority 2002, dated 2005)
Ends that are not written are not given here. Peptide text beside a SMILES is read from it.

Legend:
CRF1R = target: T1, CRF1R (Homo sapiens, UniProt P34998); assay: CRF1R agonist activation (EC50 / Emax), called comparative CRF binding; type: cell-based; conditions: for Emax: read-out: CRF1R Emax; for EC50: read-out: CRF1R EC50
T1 sequence (P34998 24-415): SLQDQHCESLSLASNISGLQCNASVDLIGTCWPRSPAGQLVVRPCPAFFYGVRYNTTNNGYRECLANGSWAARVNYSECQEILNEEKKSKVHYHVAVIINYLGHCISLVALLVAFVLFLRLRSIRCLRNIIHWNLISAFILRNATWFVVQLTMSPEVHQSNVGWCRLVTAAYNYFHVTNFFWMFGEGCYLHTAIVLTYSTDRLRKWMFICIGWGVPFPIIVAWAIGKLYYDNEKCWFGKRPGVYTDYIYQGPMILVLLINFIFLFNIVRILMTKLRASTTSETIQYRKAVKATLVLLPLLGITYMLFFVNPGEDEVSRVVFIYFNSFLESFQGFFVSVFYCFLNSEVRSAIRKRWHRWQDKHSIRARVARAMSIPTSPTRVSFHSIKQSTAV
How it was run: (§1)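 Agonism at each human CRF receptor subtype is inferred from increased cAMP relative to vehicle, using cells expressing that subtype and either lysate cAMP measurement or a cAMP response element reporter.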

CRF2R = target: T2, CRF2R (Homo sapiens, UniProt Q13324); assay: CRF2R agonist activation (EC50 / Emax), called comparative CRF binding; type: cell-based; conditions: for Emax: read-out: CRF2R Emax; for EC50: read-out: CRF2R EC50
T2 sequence (Q13324 1-411): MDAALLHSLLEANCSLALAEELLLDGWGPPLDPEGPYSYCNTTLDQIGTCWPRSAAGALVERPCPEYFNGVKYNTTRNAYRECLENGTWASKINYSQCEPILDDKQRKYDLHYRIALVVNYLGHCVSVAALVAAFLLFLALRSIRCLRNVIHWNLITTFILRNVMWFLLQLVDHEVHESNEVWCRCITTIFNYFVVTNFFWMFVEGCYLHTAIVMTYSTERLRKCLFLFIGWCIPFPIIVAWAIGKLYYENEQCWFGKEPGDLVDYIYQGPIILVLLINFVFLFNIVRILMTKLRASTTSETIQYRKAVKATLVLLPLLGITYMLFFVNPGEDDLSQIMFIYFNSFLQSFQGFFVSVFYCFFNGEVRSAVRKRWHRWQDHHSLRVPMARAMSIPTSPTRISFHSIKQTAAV
How it was run: as §1

| Molecule | Emax (CRF1R) [%] | Emax (CRF2R) [%] | EC50 (CRF1R) [µM] | EC50 (CRF2R) [µM] |
| --- | --- | --- | --- | --- |
| CC[C@H](C)[C@H](N)C(=O)N[C@H](C(=O)N[C@@H](CC(C)C)C(=O)N[C@@H](CO)C(=O)N[C@@H](CC(C)C)C(=O)N[C@@H](CC(=O)O)C(=O)N[C@H](C(=O)N1CCC[C@H]1C(=O)N[C@H](C(=O)NCC(=O)N[C@@H](CC(C)C)C(=O)N[C@@H](CC(C)C)C(=O)N[C@@H](CCC(N)=O)C(=O)N[C@H](C(=O)N[C@@H](CC(C)C)C(=O)N[C@@H](CC(C)C)C(=O)N[C@@H](CCC(=O)O)C(=O)N[C@@H](CCC(N)=O)C(=O)N[C@@H](C)C(=O)N[C@@H](CCCNC(=N)N)C(=O)N[C@@H](C)C(=O)N[C@@H](C)C(=O)N[C@@H](C)C(=O)N[C@@H](CCCNC(=N)N)C(=O)N[C@@H](CCC(=O)O)C(=O)N[C@@H](CCC(N)=O)C(=O)N[C@@H](C)C(=O)N[C@H](C(=O)N[C@H](C(=O)N[C@@H](CC(N)=O)C(=O)N[C@@H](C)C(=O)N[C@@H](CCCNC(=N)N)C(=O)N[C@H](C(=O)N[C@@H](CC(C)C)C(=O)N[C@@H](C)C(=O)N[C@@H](CCCNC(=N)N)C(=O)N[C@H](C(N)=O)C(C)C)[C@@H](C)CC)[C@@H](C)O)[C@@H](C)O)[C@@H](C)CC)[C@@H](C)CC)C(C)C)C(C)C [compound 141] (H-IVLSLDVPIGLLQILLEQARAAAREQATTNARILARV-NH2) | 7 | 29 |  |  |
| CC[C@H](C)[C@H](NC(=O)[C@H](CCCNC(=N)N)NC(=O)[C@H](C)NC(=O)[C@H](CC(N)=O)NC(=O)[C@H](CCC(N)=O)NC(=O)[C@H](CCC(=O)O)NC(=O)[C@H](C)NC(=O)[C@H](CCCNC(=N)N)NC(=O)[C@H](CCC(=O)O)NC(=O)[C@H](CCCNC(=N)N)NC(=O)[C@H](CCC(N)=O)NC(=O)[C@H](CO)NC(=O)[C@H](CCC(N)=O)NC(=O)[C@@H](NC(=O)[C@H](CCCCN)NC(=O)[C@H](CCC(=O)O)NC(=O)[C@H](CC(C)C)NC(=O)[C@H](CCC(=O)O)NC(=O)[C@H](CC(C)C)NC(=O)[C@H](CC(C)C)NC(=O)[C@@H](NC(=O)[C@H](CCCNC(=N)N)NC(=O)[C@H](CC(C)C)NC(=O)[C@H](CC(C)C)NC(=O)[C@H](Cc1ccccc1)NC(=O)[C@H](CC(C)C)NC(=O)[C@@H]1CCCN1C(=O)[C@H](CC(C)C)NC(=O)[C@H](CC(=O)O)NC(=O)[C@@H](NC(=O)[C@H](CO)NC(=O)[C@H](CC(C)C)NC(=O)[C@H](CO)NC(=O)[C@@H]1CCCN1)[C@@H](C)CC)[C@@H](C)O)[C@@H](C)O)C(=O)N[C@@H](Cc1ccccc1)C(=O)N[C@@H](C)C(=O)N[C@@H](CCCNC(=N)N)C(=O)N[C@H](C(N)=O)C(C)C [compound 331] (H-PSLSIDLPLFLLRTLLELEKTQSQRERAEQNARIFARV-NH2; N-terminus assumed) | 78.7 | 100 |  |  |
| CC[C@H](C)[C@H](N)C(=O)N[C@H](C(=O)N[C@@H](CC(C)C)C(=O)N[C@@H](CO)C(=O)N[C@@H](CC(C)C)C(=O)N[C@@H](CC(=O)O)C(=O)N[C@H](C(=O)N1CCC[C@H]1C(=O)N[C@H](C(=O)NCC(=O)N[C@@H](CC(C)C)C(=O)N[C@@H](CC(C)C)C(=O)N[C@@H](CCC(N)=O)C(=O)N[C@H](C(=O)N[C@@H](CC(C)C)C(=O)N[C@@H](CC(C)C)C(=O)N[C@@H](CCC(=O)O)C(=O)N[C@@H](CCC(N)=O)C(=O)N[C@@H](C)C(=O)N[C@@H](C)C(=O)N[C@@H](CCCNC(=N)N)C(=O)N[C@@H](C)C(=O)N[C@@H](C)C(=O)N[C@@H](CCCNC(=N)N)C(=O)N[C@@H](CCC(=O)O)C(=O)N[C@@H](CCC(N)=O)C(=O)N[C@@H](C)C(=O)N[C@H](C(=O)N[C@H](C(=O)N[C@@H](CC(N)=O)C(=O)N[C@@H](C)C(=O)N[C@@H](CCCNC(=N)N)C(=O)N[C@H](C(=O)N[C@@H](CC(C)C)C(=O)N[C@@H](C)C(=O)N[C@@H](CCCNC(=N)N)C(=O)N[C@H](C(N)=O)C(C)C)[C@@H](C)CC)[C@@H](C)O)[C@@H](C)O)[C@@H](C)CC)[C@@H](C)CC)C(C)C)C(C)C [compound 135] (H-IVLSLDVPIGLLQILLEQAARAAREQATTNARILARV-NH2) | 6 | 76 |  |  |
| NDDPPISIDLPLLLLRNMIEMARIENEREQAGLNAKYLAEV-NH2 [compound 268] | 14.2 | 59 |  |  |
| CC[C@H](C)[C@H](N)C(=O)N[C@H](C(=O)N[C@@H](CC(C)C)C(=O)N[C@@H](CO)C(=O)N[C@@H](CC(C)C)C(=O)N[C@@H](CC(=O)O)C(=O)N[C@H](C(=O)N1CCC[C@H]1C(=O)N[C@H](C(=O)NCC(=O)N[C@@H](CC(C)C)C(=O)N[C@@H](CC(C)C)C(=O)N[C@@H](CCC(N)=O)C(=O)N[C@H](C(=O)N[C@@H](CC(C)C)C(=O)N[C@@H](CC(C)C)C(=O)N[C@@H](CCC(=O)O)C(=O)N[C@@H](CCC(N)=O)C(=O)N[C@H](C(=O)N[C@@H](CCCCN)C(=O)N[C@@H](C)C(=O)N[C@@H](CC(=O)O)C(=O)N[C@@H](CCC(N)=O)C(=O)N[C@@H](CC(C)C)C(=O)N[C@@H](C)C(=O)N[C@@H](CCC(N)=O)C(=O)N[C@@H](CCC(N)=O)C(=O)N[C@@H](C)C(=O)N[C@@H](Cc1c[nH]cn1)C(=O)N[C@@H](CO)C(=O)N[C@@H](CC(N)=O)C(=O)N[C@@H](CCCNC(=N)N)C(=O)N[C@@H](CCCCN)C(=O)N[C@@H](CC(C)C)C(=O)N[C@@H](CC(C)C)C(=O)N[C@@H](CC(=O)O)C(=O)N[C@H](C(=O)N[C@@H](C)C(N)=O)[C@@H](C)CC)[C@@H](C)O)[C@@H](C)CC)[C@@H](C)CC)C(C)C)C(C)C [compound 159] (H-IVLSLDVPIGLLQILLEQTKADQLAQQAHSNRKLLDIA-NH2; N-terminus assumed) | 9 | 62 |  |  |
| CC[C@H](C)[C@H](N)C(=O)N[C@H](C(=O)N[C@@H](CC(C)C)C(=O)N[C@@H](CO)C(=O)N[C@@H](CC(C)C)C(=O)N[C@@H](CC(=O)O)C(=O)N[C@H](C(=O)N1CCC[C@H]1C(=O)N[C@H](C(=O)NCC(=O)N[C@@H](CC(C)C)C(=O)N[C@@H](CC(C)C)C(=O)N[C@@H](CCC(N)=O)C(=O)N[C@H](C(=O)N[C@@H](CC(C)C)C(=O)N[C@@H](CC(C)C)C(=O)N[C@@H](CCC(=O)O)C(=O)N[C@@H](CCC(N)=O)C(=O)N[C@@H](C)C(=O)N[C@@H](CCCCN)C(=O)N[C@@H](C)C(=O)N[C@@H](CCC(=O)O)C(=O)N[C@@H](C)C(=O)N[C@@H](C)C(=O)N[C@@H](CCCNC(=N)N)C(=O)N[C@@H](CCC(=O)O)C(=O)N[C@@H](CCC(N)=O)C(=O)N[C@@H](C)C(=O)N[C@H](C(=O)N[C@H](C(=O)N[C@@H](CC(N)=O)C(=O)N[C@@H](C)C(=O)N[C@@H](CCCNC(=N)N)C(=O)N[C@H](C(=O)N[C@@H](CC(C)C)C(=O)N[C@@H](C)C(=O)N[C@@H](CCCNC(=N)N)C(=O)N[C@H](C(N)=O)C(C)C)[C@@H](C)CC)[C@@H](C)O)[C@@H](C)O)[C@@H](C)CC)[C@@H](C)CC)C(C)C)C(C)C [compound 112] (H-IVLSLDVPIGLLQILLEQAKAEAAREQATTNARILARV-NH2; N-terminus assumed) | 10 | 100 | > 0.1 | 0.0123 |
| NDDPPISIDLPLFLLRNMIEMARIENEREQAGLNAKYLAEV-NH2 [compound 257] | 83.5 | 72.6 |  |  |
| CC[C@H](C)[C@H](N)C(=O)N[C@H](C(=O)N[C@@H](CC(C)C)C(=O)N[C@@H](CO)C(=O)N[C@@H](CC(C)C)C(=O)N[C@@H](CC(=O)O)C(=O)N[C@H](C(=O)N1CCC[C@H]1C(=O)N[C@H](C(=O)NCC(=O)N[C@@H](CC(C)C)C(=O)N[C@@H](CC(C)C)C(=O)N[C@@H](CCC(N)=O)C(=O)N[C@H](C(=O)N[C@@H](CC(C)C)C(=O)N[C@@H](CC(C)C)C(=O)N[C@@H](CCC(=O)O)C(=O)N[C@@H](CCC(N)=O)C(=O)N[C@@H](C)C(=O)N[C@@H](CCCCN)C(=O)N[C@@H](C)C(=O)N[C@@H](CC(=O)O)C(=O)N[C@@H](C)C(=O)N[C@@H](C)C(=O)N[C@@H](CCCNC(=N)N)C(=O)N[C@@H](CCC(=O)O)C(=O)N[C@@H](CCC(N)=O)C(=O)N[C@@H](C)C(=O)N[C@H](C(=O)N[C@H](C(=O)N[C@@H](CC(N)=O)C(=O)N[C@@H](C)C(=O)N[C@@H](CCCNC(=N)N)C(=O)N[C@H](C(=O)N[C@@H](CC(C)C)C(=O)N[C@@H](C)C(=O)N[C@@H](CCCNC(=N)N)C(=O)N[C@H](C(N)=O)C(C)C)[C@@H](C)CC)[C@@H](C)O)[C@@H](C)O)[C@@H](C)CC)[C@@H](C)CC)C(C)C)C(C)C [compound 131] (H-IVLSLDVPIGLLQILLEQAKADAAREQATTNARILARV-NH2; N-terminus assumed) | 8 | 91 | > 0.1 | 0.00525 |
| SQEPPISLDLPTYLLREVLEMTKADQLAQQAHSNRKLLDIA-NH2 [compound 106] | 4.8 | 6.1 |  |  |
